Reference: EP1143981B1, “USE OF N-GLYCOLNEURAMINIC ACID AND ITS DERIVATIVES FOR THE MANUFACTURE OF A MEDICAMENT FOR THE TREATMENT OF HIV INFECTIONS” (Glukor, Inc., priority 1998, dated 2000)

Columns and labels:
Type in all cases: cell-based
HIV-1III B [1] = experiment: HIV-1 P24 output, test solution mixed with virus, PBMCs infected overnight; conditions: day 9
Description: Example 4-Specificity of Inhibition: Research grade purified d-Galactose (CAT# g404, lot 117H00431, FW 180.2, Sigma Chemical Co., St. Louis, MO) was dissolved in saline at a concentration of 5mg/ml. The solution was allowed to stand at room temperature for 15 minutes and mixed by vortex until the galactose was completely dissolved. The galactose solution was divided into two equal aliquots. Stabilizing solution (0.1 ml) was added to one aliquot, then vortexed and incubated at room temperature for 30 minutes. After mixing again, the mixture was centrifuged at 1500g for 30 minutes and the supernatant was filtered through a 0.2µm filter and transferred to a sterile 15 ml tube. The solution was sterilized by gamma radiation (2.5 mega RADs) with 15 minutes exposure. The aliquot without the stabilizing solution was labeled "1A" and the aliquot containing the stabilized solution was labeled "1B". […] Each of the test solutions were diluted 1:20 1:40,1:80, and 1:160 in saline. Control solutions were water.
One ml of each of the dilutions of the test solution or control was mixed with an equal volume of HIV-1III B (~50 TCID50 /2x10^5 cells) to infect activated human PBMCs overnight at 37°C (3x10^5 cells/dilution). HIV-1III B is a laboratory-adapted strain. The cells then were washed and placed in culture media containing the indicated dilution of the test solution in triplicate wells (1x10^3 cells per well, ½ medium changes with media containing the indicated dilutions of test solution were made at ~3 day intervals). The conditioned media were tested for HIV-1 P24 output on day 9 using the DuPont P24 assay kit. The control was infected PBMCs in the absence of test solutions. Results are shown in Table 9 and are measured as the Inhibition% of the control. […]

HIV-1III B [2] = experiment: as above; conditions: Dilution 1:10 of 5mg/ml solution, day 9
HIV-1 IIIB [3] = experiment: HIV-1 P24 output, test solutions added post infection
Description: In addition, a similar experiment was performed, except that test solutions were added post infection, at the time of plating into the triplicate wells.

HIV-1 IIIB [4] = experiment: HIV-1 P24 output, repeat with stored solutions, 3 hours infection; conditions: day 6
Description: The test was repeated using test solutions stored at 4°C. In this experiment, the dilutions were mixed with HIV-1 IIIB virus at the time of infecting the activated human PBMCs for 3 hours. The cells then were washed and incubated in triplicate wells (1x10^3 cells/well) in the presence of the indicated dilution of the test solution. One half media changes included the test solution dilutions. Conditioned media were tested for P24 output by the antigen capture assay on day 6. Results are shown in Table 10 and are presented as the inhibition % of control (no carbohydrate added).

X4 strain LAI/IIIB = experiment: RT activity in infected PBMCs over 20 days post-infection
Description: Reverse Transcriptase Activity Assay: A microtiter based reverse transcriptase (RT) reaction was utilized as described by Buckheit et al., (1991), AIDS Research and Human Retroviruses, 7:295-302. Tritiated thymidine triphosphate (^3H-TTP) was suspended in distilled H2O at 5 Ci/mL. Poly rA and oligo dT were prepared as a stock solution which was kept at -20°C. RT reaction buffer was prepared fresh on a daily basis and contained 125 µL 1M EGTA, 125 µL dH2O, 110 µL 10% SDS, 50 µL 1M Tris (pH 7.4), 50 µL 1M DTT, and 40 µL 1M MgCl2. These three solutions were mixed together in a ratio of 2 parts ^3H-TTP, 1 part poly rA:oligo dT, and 1 part reaction buffer. Ten microliters of this reaction mixture were placed in a round bottom microtiter plate and 15 µL of virus containing supernatant were added and mixed. The plate was incubated at 37°C in a water bath with a solid support to prevent submersion of the plate and incubated for 60 minutes. After the incubation period, the reaction volume was spotted onto pieces of DE81 paper, washed 5 times for 5 minutes each in a 5% sodium phosphate buffer, 2 times for 1 minute each in distilled water, 2 times for 1 minute each in 70% ethanol, and then dried. Opti-Fluor-O (Packard) was added to each sample and incorporated radioactivity was quantified utilizing a Wallac 1450 MicroBeta Plus liquid scintillation counter. Plates were screened with tetrazolium dye staining as described above.
PBMCs were treated with dilutions of LUKOR of 1:4, 1:20, 1:100, 1:500, or 1:2500, or concentrations ofN-glycolylneuraminic acid or N-acetylneuraminic acid of 0.4, 1.2, 3.6, 11, or 33µg/ml. No carbohydrates were added to the control sample. RT activity was determined at 3, 6, 9,13, 17, and 20 days post-infection (PI) with X4 strain LAI/IIIB.

[5] = Dilution 1:10, added post infection
[6] = Dilution 1:20, added post infection
[7] = Dilution 1:20, repeat with further dilutions (Table 12)
[8] = Dilution 1:40, added post infection
[9] = Dilution 1:80, added post infection
[10] = Dilution 1:100, repeat with further dilutions (Table 12)
[11] = Dilution 1:160, added post infection
[12] = Dilution 1:1000, repeat with further dilutions (Table 12)
[13] = Dilution 1:10, solutions stored at 4°C
[14] = Dilution 1:20, solutions stored at 4°C
[15] = Dilution 1:40, solutions stored at 4°C
[16] = Dilution 1:80, solutions stored at 4°C
[17] = Dilution 1:160, solutions stored at 4°C

In the case of OC[C@H]1O[C@H](O[C@H]2[C@@H](O)[C@@H](CO)OC(O)[C@@H]2O)[C@H](O)[C@@H](O)[C@H]1O (stereo partly drawn) [3AA, galactose-α 1,3-galactose], the “P24 output, Inhibition% of the control” value (HIV-1III B [1]; Dilution 1:20) was 3.6%, the “P24 output, Inhibition% of the control” value (HIV-1III B [1]; Dilution 1:40) was 2.2% and the “P24 output, Inhibition% of the control” value (HIV-1III B [1]; Dilution 1:80) was 1.4%. The “P24 output, Inhibition% of the control” value (HIV-1III B [1]; Dilution 1:160) was 0.4% and the “P24 output, Inhibition% of the control” value (HIV-1III B [2]) was 4.3%.

In the case of O=C(CO)N[C@H]1[C@H]([C@H](O)[C@H](O)CO)OC(O)(C(=O)O)C[C@@H]1O (single isomer, unassigned) [2B, N-glycolylneuraminic acid], the “Inhibition % of Control” value (HIV-1 IIIB [3]; [5]) was 82%, the “Inhibition % of Control” value (HIV-1 IIIB [3]; [6]) was 70% and the “Inhibition % of Control” value (HIV-1 IIIB [3]; [7]) was 78%. The “Inhibition % of Control” value (HIV-1 IIIB [3]; [8]) was 61%, the “Inhibition % of Control” value (HIV-1 IIIB [3]; [9]) was 26% and the “Inhibition % of Control” value (HIV-1 IIIB [3]; [10]) was 42%. For the same compound, the “Inhibition % of Control” value (HIV-1 IIIB [3]; [11]) was 15%, the “Inhibition % of Control” value (HIV-1 IIIB [3]; [12]) was 1% and the “P24 output, Inhibition% of the control” value (HIV-1III B [1]; Dilution 1:20) was 81%. The “P24 output, Inhibition% of the control” value (HIV-1III B [1]; Dilution 1:40) was 61%, the “P24 output, Inhibition% of the control” value (HIV-1III B [1]; Dilution 1:80) was 37% and the “P24 output, Inhibition% of the control” value (HIV-1III B [1]; Dilution 1:160) was 16%. For the same compound, the “Inhibition % of Control” value (HIV-1 IIIB [4]; [13]) was 88%, the “Inhibition % of Control” value (HIV-1 IIIB [4]; [14]) was 74% and the “Inhibition % of Control” value (HIV-1 IIIB [4]; [15]) was 59%. The “Inhibition % of Control” value (HIV-1 IIIB [4]; [16]) was 44%, the “Inhibition % of Control” value (HIV-1 IIIB [4]; [17]) was 13% and the “P24 output, Inhibition% of the control” value (HIV-1III B [2]) was 93%.

d-Galactose [1B] was tested, and the “P24 output, Inhibition% of the control” value (HIV-1III B [1]; Dilution 1:20) was 5%, the “P24 output, Inhibition% of the control” value (HIV-1III B [1]; Dilution 1:40) was 3% and the “P24 output, Inhibition% of the control” value (HIV-1III B [1]; Dilution 1:80) was 4%. The “P24 output, Inhibition% of the control” value (HIV-1III B [1]; Dilution 1:160) was 2% and the “P24 output, Inhibition% of the control” value (HIV-1III B [2]) was 7%.

For O=C(CO)N[C@H]1[C@H]([C@H](O)[C@H](O)CO)OC(O)(C(=O)O)C[C@@H]1O (single isomer, unassigned) [2A, N-glycolylneuraminic acid], the “Inhibition % of Control” value (HIV-1 IIIB [3]; [5]) was 95%, the “Inhibition % of Control” value (HIV-1 IIIB [3]; [6]) was 75% and the “Inhibition % of Control” value (HIV-1 IIIB [3]; [7]) was 88%. For the same compound, the “Inhibition % of Control” value (HIV-1 IIIB [3]; [8]) was 66%, the “Inhibition % of Control” value (HIV-1 IIIB [3]; [9]) was 30% and the “Inhibition % of Control” value (HIV-1 IIIB [3]; [10]) was 55%. The “Inhibition % of Control” value (HIV-1 IIIB [3]; [11]) was 16%, the “Inhibition % of Control” value (HIV-1 IIIB [3]; [12]) was 7% and the “P24 output, Inhibition% of the control” value (HIV-1III B [1]; Dilution 1:20) was 78%. The “P24 output, Inhibition% of the control” value (HIV-1III B [1]; Dilution 1:40) was 66%, the “Inhibition % of Control” value (HIV-1 IIIB [4]; [13]) was 96% and the “Inhibition % of Control” value (HIV-1 IIIB [4]; [14]) was 78%. The “Inhibition % of Control” value (HIV-1 IIIB [4]; [15]) was 62%, the “Inhibition % of Control” value (HIV-1 IIIB [4]; [16]) was 47% and the “Inhibition % of Control” value (HIV-1 IIIB [4]; [17]) was 17%. It also gave an inhibition at 5000 µg/mL (stock) (HIV-1III B [2]; Human immunodeficiency virus 1, PBMC, 216 h, read-out: P24 output, Inhibition% of the control) of 94%.

For d-Galactose [1A], the “P24 output, Inhibition% of the control” value (HIV-1III B [1]; Dilution 1:20) was 5%, the “P24 output, Inhibition% of the control” value (HIV-1III B [1]; Dilution 1:40) was 4% and the “P24 output, Inhibition% of the control” value (HIV-1III B [1]; Dilution 1:80) was 2%. For the same compound, the “P24 output, Inhibition% of the control” value (HIV-1III B [1]; Dilution 1:160) was 2% and the “P24 output, Inhibition% of the control” value (HIV-1III B [2]) was 4%.

For CC(=O)N[C@H]1[C@H]([C@H](O)[C@H](O)CO)OC(O)(C(=O)O)C[C@@H]1O (some centres unmarked) [N-acetylneuraminic acid, reference compound], the “RT Activity” value (X4 strain LAI/IIIB; 0.4 µg/ml, 3 days PI) was 89, the “RT Activity” value (X4 strain LAI/IIIB; 0.4 µg/ml, 6 days PI) was 129 and the “RT Activity” value (X4 strain LAI/IIIB; 0.4 µg/ml, 9 days PI) was 878. For the same compound, the “RT Activity” value (X4 strain LAI/IIIB; 0.4 µg/ml, 13 days PI) was 2703, the “RT Activity” value (X4 strain LAI/IIIB; 0.4 µg/ml, 17 days PI) was 1615 and the “RT Activity” value (X4 strain LAI/IIIB; 0.4 µg/ml, 20 days PI) was 812. The “RT Activity” value (X4 strain LAI/IIIB; 3.6 µg/ml, 3 days PI) was 83, the “RT Activity” value (X4 strain LAI/IIIB; 3.6 µg/ml, 6 days PI) was 508 and the “RT Activity” value (X4 strain LAI/IIIB; 3.6 µg/ml, 9 days PI) was 1902. The “RT Activity” value (X4 strain LAI/IIIB; 3.6 µg/ml, 13 days PI) was 1892, the “RT Activity” value (X4 strain LAI/IIIB; 3.6 µg/ml, 17 days PI) was 1260 and the “RT Activity” value (X4 strain LAI/IIIB; 3.6 µg/ml, 20 days PI) was 836. The “RT Activity” value (X4 strain LAI/IIIB; 11 µg/ml, 3 days PI) was 43, the “RT Activity” value (X4 strain LAI/IIIB; 11 µg/ml, 6 days PI) was 75 and the “RT Activity” value (X4 strain LAI/IIIB; 11 µg/ml, 9 days PI) was 799. For the same compound, the “RT Activity” value (X4 strain LAI/IIIB; 11 µg/ml, 13 days PI) was 2047, the “RT Activity” value (X4 strain LAI/IIIB; 11 µg/ml, 17 days PI) was 2990 and the “RT Activity” value (X4 strain LAI/IIIB; 11 µg/ml, 20 days PI) was 1171. The “RT Activity” value (X4 strain LAI/IIIB; 33 µg/ml, 3 days PI) was 36, the “RT Activity” value (X4 strain LAI/IIIB; 33 µg/ml, 6 days PI) was 53 and the “RT Activity” value (X4 strain LAI/IIIB; 33 µg/ml, 9 days PI) was 165. The “RT Activity” value (X4 strain LAI/IIIB; 33 µg/ml, 13 days PI) was 442, the “RT Activity” value (X4 strain LAI/IIIB; 33 µg/ml, 17 days PI) was 1273 and the “RT Activity” value (X4 strain LAI/IIIB; 33 µg/ml, 20 days PI) was 1526. For the same compound, the “RT activity in treated cells (summary in words)” value (X4 strain LAI/IIIB; all dilutions/concentrations, 3-20 days PI) was “decreased RT activity was observed only with high concentrations”.
